ChEMBL document CHEMBL2046268 (Eur J Med Chem, 2012)
The source made the active and inactive calls. The calls are words filed in the database; no cut-off is given here.

Columns and labels:
Caspase-3 (Homo sapiens) [1] = target: T1, Caspase-3 (Homo sapiens) (UniProt P42574); assay: Induction of caspase 3 activation in human HeLa cells using Ac-DEVD-pNA at 2 uM after 4 hrs by Bradford assay; type: cell-based
T1 sequence (whole entry): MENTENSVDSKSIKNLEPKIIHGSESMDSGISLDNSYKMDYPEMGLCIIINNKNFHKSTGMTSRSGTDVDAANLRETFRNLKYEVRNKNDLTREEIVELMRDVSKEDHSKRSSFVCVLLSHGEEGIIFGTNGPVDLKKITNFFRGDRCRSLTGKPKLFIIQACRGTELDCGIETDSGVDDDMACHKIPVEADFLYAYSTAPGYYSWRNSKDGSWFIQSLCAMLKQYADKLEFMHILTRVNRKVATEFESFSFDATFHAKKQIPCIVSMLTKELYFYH

HeLa [2] = assay: Induction of apoptosis in human HeLa cells assessed as DNA fragmentation at 2 uM after 48 hrs by agarose gel electrophoresis; type: functional, cell-based
HeLa [3] = assay: Induction of apoptosis in human HeLa cells at 8 uM after 2 to 4 hrs using annexin/PI staining by fluorescence microscopy; type: functional, cell-based
HeLa [4] = assay: Induction of apoptosis in human HeLa cells at 16 uM after 2 to 4 hrs using annexin/PI staining by fluorescence microscopy; type: functional, cell-based
HeLa [5] = assay: Induction of apoptosis in human HeLa cells at 12 uM after 2 to 4 hrs using annexin/PI staining by fluorescence microscopy; type: functional, cell-based
HeLa [6] = assay: Induction of apoptosis in human HeLa cells assessed as DNA fragmentation at 16 to 32 uM after 24 hrs by agarose gel electrophoresis; type: functional, cell-based
MCF7 [7] = assay: Cytotoxicity against human MCF7 cells assessed as cell viability after 48 hrs by MTT assay; type: functional, cell-based; settings: MCF7, 48 h
Caspase-3 (Homo sapiens) [8] = target: T1, Caspase-3 (Homo sapiens); assay: Induction of caspase 3 activation in human HeLa cells using Ac-DEVD-pNA at 4 uM after 4 hrs by Bradford assay; type: cell-based
HeLa [9] = assay: Induction of apoptosis in human HeLa cells assessed as necrotic cells after 0.5 to 4 hrs using annexin/PI staining by fluorescence microscopy; type: functional, cell-based
HeLa [10] = assay: Induction of apoptosis in human HeLa cells assessed as necrotic cells at 2 to 16 uM using annexin/PI staining by fluorescence microscopy; type: functional, cell-based; settings: TDE = time-dependent effect
MCF7 [11] = assay: Cytotoxicity against human MCF7 cells assessed as cell viability after 72 hrs by MTT assay; type: functional, cell-based; settings: MCF7, 72 h
Vero [12] = assay: Cytotoxicity against african green monkey Vero cells assessed as cell viability after 72 hrs by MTT assay; type: cell-based; settings: Chlorocebus sabaeus
Vero [13] = assay: Cytotoxicity against african green monkey Vero cells assessed as cell viability after 48 hrs by MTT assay; type: cell-based; settings: Chlorocebus sabaeus
HeLa [14] = assay: Induction of apoptosis in human HeLa cells assessed as formation of apoptotic bodies at 8 uM after 12 hrs using Hoechst 33342 staining by fluorescence microscopic analysis; type: functional, cell-based
Vero [15] = assay: Selectivity index, ratio of IC50 for african green monkey Vero cells to IC50 for human MCF7 cells after 48 hrs
HeLa [16] = assay: Cytotoxicity against human HeLa cells assessed as cell viability after 48 hrs by MTT assay; type: functional, cell-based
Caspase-3 (Homo sapiens) [17] = target: T1, Caspase-3 (Homo sapiens); assay: Induction of caspase 3 activation in human HeLa cells using Ac-DEVD-pNA at 24 uM after 8 hrs by Bradford assay; type: cell-based
A549 [18] = assay: Cytotoxicity against human A549 cells assessed as cell viability after 48 hrs by MTT assay; type: functional, cell-based; settings: A549, 48 h
HeLa [19] = assay: Induction of apoptosis in human HeLa cells assessed as phosphatidylserine externalization at 2 to 16 uM using annexin/PI staining by fluorescence microscopy; type: functional, cell-based; settings: TDE = time-dependent effect
Caspase-3 (Homo sapiens) [20] = target: T1, Caspase-3 (Homo sapiens); assay: Induction of caspase 3 activation in human HeLa cells using Ac-DEVD-pNA at 8 uM after 4 hrs by Bradford assay; type: cell-based
HeLa [21] = assay: Induction of apoptosis in human HeLa cells assessed as phosphatidylserine externalization after 0.5 to 4 hrs using annexin/PI staining by fluorescence microscopy; type: functional, cell-based
HeLa [22] = assay: Induction of apoptosis in human HeLa cells assessed as increase in sub-G1 DNA content at 24 uM after 12 hrs using Propidium iodide staining by flow cytometry; type: functional, cell-based
HeLa [23] = assay: Induction of apoptosis in human HeLa cells assessed as DNA fragmentation at 16 uM after 48 hrs by agarose gel electrophoresis; type: functional, cell-based
A549 [24] = assay: Cytotoxicity against human A549 cells assessed as cell viability after 72 hrs by MTT assay; type: functional, cell-based; settings: A549, 72 h
HeLa [25] = assay: Induction of apoptosis in human HeLa cells assessed as chromatin condensation at 8 uM after 12 hrs using Hoechst 33342 staining by fluorescence microscopic analysis; type: functional, cell-based
HeLa [26] = assay: Induction of apoptosis in human HeLa cells assessed as DNA fragmentation at 4 to 32 uM after 12 hrs by agarose gel electrophoresis; type: functional, cell-based
Caspase-3 (Homo sapiens) [27] = target: T1, Caspase-3 (Homo sapiens); assay: Induction of caspase 3 activation in human HeLa cells using Ac-DEVD-pNA after 4 hrs by Bradford assay; type: cell-based
HeLa [28] = assay: Cytotoxicity against human HeLa cells assessed as cell viability after 72 hrs by MTT assay; type: functional, cell-based
HeLa [29] = assay: Induction of apoptosis in human HeLa cells assessed as early apoptotic cells at 2 to 4 uM up to 4 hrs using annexin/PI staining by fluorescence microscopy; type: functional, cell-based
Caspase-3 (Homo sapiens) [30] = target: T1, Caspase-3 (Homo sapiens); assay: Increase in caspase 3 activation in human HeLa cells using Ac-DEVD-pNA at 12 uM after 4 hrs by Bradford assay relative to control; type: cell-based
Caspase-3 (Homo sapiens) [31] = target: T1, Caspase-3 (Homo sapiens); assay: Increase in caspase 3 activation in human HeLa cells using Ac-DEVD-pNA at 32 uM after 4 hrs by Bradford assay relative to control; type: cell-based
HeLa [32] = assay: Induction of apoptosis in human HeLa cells assessed as necrotic cells at 8 uM after 1 to 2 hrs using annexin/PI staining by fluorescence microscopy; type: functional, cell-based

Structure (SMILES)	Activity (HeLa [6])	IC50 (MCF7 [7]) [nM]	Activity (Caspase-3 (Homo sapiens) [8])	Activity (HeLa [9])	Activity (HeLa [10])	IC50 (MCF7 [11]) [nM]	IC50 (Vero [12]) [nM]	IC50 (Vero [13]) [nM]	Activity (HeLa [14])	Ratio IC50 (Vero [15])	IC50 (HeLa [16]) [nM]	IC50 (A549 [18]) [µM]	Activity (HeLa [19])	Activity (Caspase-3 (Homo sapiens) [20])	Activity (HeLa [21])	Activity (HeLa [22])	Activity (HeLa [23])	IC50 (A549 [24]) [nM]	Activity (HeLa [25])	Activity (HeLa [26])	other results
CN[C@@H]1C[C@H]2O[C@@](C)([C@@H]1OC)n1c3ccccc3c3c4c(c5c6ccccc6n2c5c31)C(=O)NC4	–	–	–	–	–	–	–	–	–	–	–	–	–	–	–	–	–	–	–	–	Activity (Caspase-3 (Homo sapiens) [1]): Active; Activity (HeLa [2]): Active
CC1=C(CO[Si](C)(C)C(C)(C)C)C(=O)O[C@@H]([C@@H](C)[C@H]2CC[C@H]3[C@@H]4C[C@H]5O[C@]56C(=O)C=CC(=O)[C@]6(C)[C@H]4CC[C@]23C)C1	inactive	500	inactive	Dose-dependent effect	tde	200	4000	3100	Active	6.2	1700	5.3	tde	inactive	Dose-dependent effect	Active	inactive	2900	Active	inactive	Activity (HeLa [3]): Active; Activity (HeLa [4]): Active; Activity (HeLa [5]): Active; Activity (Caspase-3 (Homo sapiens) [17]): Active; Activity (Caspase-3 (Homo sapiens) [27]): Dose-dependent effect; IC50 (HeLa [28]): 2100 nM
CC1=C(CO)C(=O)O[C@@H]([C@@H](C)C2=CC[C@H]3[C@@H]4C[C@H]5O[C@]56[C@@H](O)C=CC(=O)[C@]6(C)[C@H]4CC[C@]23C)C1 [WITHARISTATIN]	inactive	1200	inactive	Dose-dependent effect	tde	300	2600	3400	Active	2.8	3500	4.2	tde	inactive	Dose-dependent effect	Active	inactive	2300	Active	inactive	Activity (HeLa [29]): Active; Activity (Caspase-3 (Homo sapiens) [27]): Dose-dependent effect; fold change (FC) (Caspase-3 (Homo sapiens) [30]): 1; IC50 (HeLa [28]): 2700 nM
CC1=C(CO[Si](C)(C)C(C)(C)C)C(=O)O[C@@H]([C@@H](C)[C@H]2CC[C@H]3[C@@H]4C[C@H]5O[C@]56[C@@H](O)C=CC(=O)[C@]6(C)[C@H]4CC[C@]23C)C1	inactive	700	inactive	Dose-dependent effect	tde	700	900	700	Active	1	900	1.5	tde	inactive	Dose-dependent effect	Active	inactive	1500	Active	inactive	Activity (Caspase-3 (Homo sapiens) [31]): inactive; Activity (HeLa [32]): inactive; Activity (Caspase-3 (Homo sapiens) [27]): Dose-dependent effect; IC50 (HeLa [28]): 1000 nM
CC1=C(CO)C(=O)O[C@@H]([C@@H](C)[C@H]2CC[C@H]3[C@@H]4C[C@H]5O[C@]56[C@@H](O)C=CC(=O)[C@]6(C)[C@H]4CC[C@]23C)C1 [WITHAFERIN A]	inactive	3600	inactive	Dose-dependent effect	tde	600	1700	1300	Active	<1	3000	6.6	tde	inactive	Dose-dependent effect	Active	inactive	1500	Active	inactive	Activity (HeLa [29]): Active; Activity (Caspase-3 (Homo sapiens) [17]): Active; Activity (Caspase-3 (Homo sapiens) [27]): Dose-dependent effect; IC50 (HeLa [28]): 2300 nM
CC1=C(C)C(=O)O[C@@H]([C@@H](C)[C@H]2CC[C@H]3[C@@H]4C[C@H]5O[C@]56[C@@H](O)C=CC(=O)[C@]6(C)[C@H]4CC[C@]23C)C1	inactive	6600	inactive	Dose-dependent effect	tde	1100	2200	1500	Active	<1	4600	9	tde	inactive	Dose-dependent effect	Active	inactive	1500	Active	inactive	Activity (HeLa [29]): Active; Activity (Caspase-3 (Homo sapiens) [27]): Dose-dependent effect; IC50 (HeLa [28]): 3400 nM
